Test [1] concerns cellulase from Trichoderma longibrachiatum. The experiment in a line: Cellulase assay: release of C1PNP/PNP (absorbance 400 nm) from substrates, with and without β-glucosidase. The test is classed as biochemical. Conditions: 40° C., pH 4.5; for sensitivity of the assay (rate of release of C1PNP) in the presence vs absence of β-glucosidase: absorbance 400 nm vs. time, FIGS. 3a-3b. The source says: FIGS. 3a-3b are graphs of absorbance (400 nm) vs. time, for the action of a cellulase from Trichoderma longibrachiatum on. […] In contrast, for BC1PNP-G3 (3b) the endo-acting Trichoderma cellulase cleaves the glycosidic bond either between two glucosyl units or between the bond between the terminal glucosyl unit and C1PNP releasing an end-blocked cello-oligosaccharide and a non-blocked C1PNP-cello-oligosaccharide fragment, or free C1PNP. The β-glucosidase in the assay mixture immediately hydrolyses the non-blocked C1PNP-cello-oligosaccharide released, giving D-glucose and free C1PNP.
FIG. 4 is a graph of absorbance (400 nm) vs. time, for the action of a cellulase from Trichoderma longibrachiatum (1500 milli-International Units on CMC-4M per assay) on p-nitrophenyl cellobiose (PNP-G2), 2-chloro-4-nitrophenyl cellobiose (C1PNP-G2), end-blocked p-nitrophenyl cellobiose (BPNP-G2) and end-blocked 2-chloro-4-nitrophenyl cellobiose (BC1PNP-G2) in the absence of added β-glucosidase at 40° C. and pH 4.5 using an assay of the invention (embodiment Two).
(§1) Prepare substrate solution by dissolving end-blocked p-nitrophenyl cello-oligosaccharides or end-blocked 2-Cl-4-nitrophenyl cello-oligosaccharide (DP 2, 3 or 4) in 2 mL of dimethyl sulphoxide to obtain a concentration of 12.5 mM. Cool this solution in ice and add 3 mL of 170 mM potassium chloride solution with mixing, to give a final substrate concentration of 5 mM. Prepare this solution fresh before use, or warm to 40° C. before use to ensure complete dissolution.
Add an aliquot (0.1 mL) of the substrate solution to the bottom of a 16×120 mm glass test tube, followed by 0.05 mL of pure β-glucosidase (Second embodiment only). Incubate tubes for 2 min at the selected reaction temperature and initiate the reaction by adding 0.1 mL of sample solution containing cellulase in 200 mM buffer solution of the desired pH (usually in the range of 4.5 to 8.0). […] Mix the tube contents and measure the absorbance at 400 nm against a reaction blank.

The subject of test [2] is cellulase from Aspergillus niger. The experiment in a line: Cellulase assay: release of C1PNP (absorbance 400 nm) from end-blocked substrates, with and without β-glucosidase. The class given is biochemical. As to conditions: 40° C., pH 4.5; absorbance 400 nm vs. time; FIGS. 2a-2b. On the procedure:
FIGS. 2a-2b are graphs of absorbance (400 nm) vs. time, for the action of a cellulase from Aspergillus niger on. […] FIG. 2b shows_end-blocked 2-chloro-4-nitrophenyl cellotriose (BC1PNP-G3) (700 milli-International Units per assay) at 40° C. and pH 4.5 in the presence and the absence of β-glucosidase using an assay of the invention. […] Note: One International Unit of enzyme activity as defined is the amount of enzyme required to release one micromole of reducing sugar equivalents per minute from carboxymethyl cellulose 4M (CMC-4M) (10 mg/mL) in 100 mM sodium acetate buffer (pH 4.5).
as §1
Add an aliquot (0.1 mL) of the substrate solution to the bottom of a 16×120 mm glass test tube, followed by 0.05 mL of pure β-glucosidase (Second embodiment only). […] Mix the tube contents and measure the absorbance at 400 nm against a reaction blank.

Entries after “also recorded” stand apart in the source; their conditions may differ.

As for “end-blocked 2-chloro-4-nitrophenyl cellobiose [BC1PNP-G2]”, the “sensitivity of the assay (rate of release of C1PNP) in the presence vs absence of β-glucosidase” value is “same sensitivity of the assay; also recorded: the same result is seen” in test [1] and “same sensitivity of the assay; also recorded: no increase in the colour formed” in test [2]. For “end-blocked 2-chloro-4-nitrophenyl cellotriose [BC1PNP-G3]”, in that order: “greater sensitivity of the assay in the presence of added β-glucosidase” and “same sensitivity of the assay; also recorded: no increase in the colour formed”. Consider “end-blocked p-nitrophenyl cellobiose [BPNP-G2]”, for which the “rate of hydrolysis by Trichoderma cellulase (comparison of substrates)” value in test [1] (absence of added β-glucosidase, 1500 milli-International Units per assay, FIG. 4) is given as “slower rate than BC1PNP-G2”.

The values above are taken from patent publication US20140154721A1, “Cellulase Assay” (Megazyme IP Limited, priority 2012, published 2014).
